The values that follow come from ChEMBL document CHEMBL1201862, “PubChem BioAssay data set” (2004).

SMILES strings stand for the structures.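 How tested: cells in 96-well plates exposed to compound for 48 hours at five concentrations. The concentration for 50% growth inhibition is given as GI50.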 Activity calls are given as the source filed them. Rule as the data show it: active = GI50 up to about 1.1 µM and inactive = higher.

Some test systems named below: KM12; UACC-62; TK-10; SF-295; HCT-15; ACHN; SF-539; SNB-19; SK-MEL-2; OVCAR-3; MDA-MB-435; NCI-H522; M14; UO-31; U-251; OVCAR-4; RXF 393; SN12C; LOX IMVI; SW-620.
Common to all, as to experiment: NCI-60 cell line screen, 48 h

For the compound `Cc1ccc(/C(O)=C/c2nc3ccccc3oc2=O)cc1`, the GI50 with KM12 is > 100 µM (inactive); in the experiment on UACC-62, 37.7 µM (inactive); with TK-10, > 100 µM (inactive); in the experiment on SF-295 it was 59.6 µM (inactive); in the experiment on HCT-15, 92.7 µM; in the experiment with ACHN, 58.1 µM (inactive). Besides, the GI50 in the experiment with SF-539 is > 100 µM (inactive); in the experiment with SNB-19, > 100 µM (inactive); in the experiment with SK-MEL-2, > 100 µM (inactive); in the experiment on OVCAR-3, 51.2 µM (inactive); in the experiment on MDA-MB-435, 25.6 µM (inactive); in the experiment with NCI-H522, 16.7 µM (inactive). Moreover, the GI50 is > 100 µM (inactive) in the experiment on M14; 40.1 µM (inactive) in the experiment on UO-31; > 100 µM (inactive) in the experiment on U-251; > 100 µM (inactive) in the experiment on OVCAR-4; > 100 µM (inactive) in the experiment with RXF 393; > 100 µM (inactive) in the experiment with SN12C.
As to `CC1=Nn2c(nc3sc4c(c3c2=O)CCCC4)SC1`, the GI50 in the experiment on KM12 was > 83.9 µM (inactive); with UACC-62 it was 76.4 µM (inactive); with TK-10 it was 53.7 µM (inactive); in the experiment with LOX IMVI, 21.4 µM (inactive); with SF-295, > 100 µM (inactive); with HCT-15, 52.6 µM. For the same compound, the GI50 in the experiment with ACHN was > 51.6 µM (inactive); in the experiment with SF-539 it was > 48.6 µM (inactive); with SNB-19, 90.2 µM (inactive); with SK-MEL-2, > 100 µM (inactive); with OVCAR-3 it was 76 µM (inactive); with MDA-MB-435 it was > 77.1 µM (inactive). Moreover, the GI50 is 53.2 µM (inactive) in the experiment with NCI-H522; > 100 µM (inactive) in the experiment with M14; 37.8 µM (inactive) in the experiment on UO-31; > 57.8 µM (inactive) in the experiment on SW-620; 45.5 µM (inactive) in the experiment with U-251; 71.3 µM (inactive) in the experiment on OVCAR-4. The GI50 is > 75.7 µM (inactive) with RXF 393 and > 78.5 µM (inactive) in the experiment with SN12C.
Turning to `Cc1ccc(/N=C2\C(=N/c3ccc(C)cc3)N(c3ccc(C)cc3)C(=S)N2C(=O)c2ccccc2)cc1`, the GI50 in the experiment with KM12 is > 100 µM (inactive); with UACC-62, > 100 µM (inactive); in the experiment with TK-10, > 100 µM (inactive); in the experiment with SF-295, 18.3 µM (inactive); in the experiment on HCT-15 it was greater than 100 µM; in the experiment on ACHN it was > 100 µM (inactive). Moreover, the GI50 with SF-539 was > 100 µM (inactive); with SNB-19 it was > 100 µM (inactive); with SK-MEL-2, > 100 µM (inactive); with OVCAR-3 it was > 100 µM (inactive); with MDA-MB-435, > 100 µM (inactive); in the experiment with NCI-H522 it was 43.8 µM (inactive). The GI50 in the experiment with M14 is > 100 µM (inactive); with UO-31, > 100 µM (inactive); in the experiment on SW-620, > 100 µM (inactive); in the experiment with U-251, > 100 µM (inactive); with RXF 393 it was 46.8 µM (inactive); in the experiment with SN12C it was > 100 µM (inactive).
As for `CC1(C)OC2C(CO)OC(n3cnc(N)nc3=O)C2O1` (stereo not drawn), the GI50 is > 100 µM (inactive) in the experiment on UACC-62; > 100 µM (inactive) in the experiment on TK-10; > 100 µM (inactive) in the experiment with LOX IMVI; > 100 µM (inactive) with SF-295; greater than 100 µM in the experiment on HCT-15; > 100 µM (inactive) in the experiment on ACHN. In addition, the GI50 in the experiment on SF-539, in the experiment with SNB-19, in the experiment with SK-MEL-2, in the experiment on OVCAR-3, in the experiment on MDA-MB-435 and in the experiment on NCI-H522 was > 100 µM (inactive) each time. Further, the GI50 with M14, in the experiment with UO-31, with SW-620, in the experiment on U-251, with RXF 393 and with SN12C was > 100 µM (inactive) each time.
For the compound `O=C(ON=C1c2ccccc2C(Br)C(Br)c2ccccc21)c1ccccc1` (stereo not drawn), the GI50 is 17.9 µM (inactive) with KM12; 16.7 µM (inactive) in the experiment with UACC-62; 15.8 µM (inactive) in the experiment with TK-10; 4.28 µM (inactive) in the experiment with LOX IMVI; 18.5 µM (inactive) in the experiment with SF-295; 17.6 µM in the experiment with HCT-15. Further, the GI50 is 17.7 µM (inactive) in the experiment on ACHN; 7.01 µM (inactive) in the experiment on SF-539; 20.7 µM (inactive) in the experiment with SNB-19; 30.2 µM (inactive) in the experiment with SK-MEL-2; 14.8 µM (inactive) in the experiment on OVCAR-3; 17.3 µM (inactive) in the experiment with MDA-MB-435. Besides, the GI50 is 1.69 µM (inactive) in the experiment with NCI-H522; 17.3 µM (inactive) in the experiment with M14; 3.79 µM (inactive) in the experiment on UO-31; 8.49 µM (inactive) in the experiment on SW-620; 17.7 µM (inactive) in the experiment with U-251; 13.2 µM (inactive) in the experiment on OVCAR-4. Moreover, the GI50 with RXF 393 is 14.1 µM (inactive); with SN12C it was 20.7 µM (inactive).
Turning to `CN(C)CCCN1c2ccc([N+](=O)[O-])cc2CCc2cc([N+](=O)[O-])ccc21`, the GI50 in the experiment on KM12 is 14.8 µM (inactive); in the experiment on UACC-62, 13.5 µM (inactive); in the experiment on TK-10, 11.3 µM (inactive); with LOX IMVI, 16.9 µM (inactive); with SF-295, 15.6 µM (inactive); in the experiment with HCT-15, 16.7 µM. The GI50 in the experiment with ACHN was 11.4 µM (inactive); in the experiment with SF-539, 15.7 µM (inactive); in the experiment with SNB-19 it was 17.8 µM (inactive); in the experiment with SK-MEL-2 it was 20.7 µM (inactive); with OVCAR-3 it was 15.5 µM (inactive); in the experiment with MDA-MB-435, 13.4 µM (inactive). Moreover, the GI50 in the experiment on NCI-H522 was 16.9 µM (inactive); with M14, 16.7 µM (inactive); with UO-31, 22.5 µM (inactive); with SW-620, 15.3 µM (inactive); with U-251, 16.2 µM (inactive); with RXF 393, 6.98 µM (inactive). Also, the GI50 in the experiment with SN12C is 15.8 µM (inactive).
With `CC(O)(/C=C/c1ccccc1)P(=O)(O)c1ccccc1` (stereo not drawn), the GI50 is > 100 µM (inactive) in the experiment on KM12; > 100 µM (inactive) with UACC-62; > 100 µM (inactive) in the experiment on TK-10; > 100 µM (inactive) in the experiment with LOX IMVI; > 100 µM (inactive) with SF-295; greater than 100 µM in the experiment on HCT-15. For the same compound, the GI50 with ACHN, with SF-539, with SNB-19, in the experiment with SK-MEL-2, in the experiment with OVCAR-3 and with MDA-MB-435 was > 100 µM (inactive) each time. In addition, the GI50 in the experiment with NCI-H522, with M14, with SW-620, in the experiment with U-251, in the experiment on OVCAR-4 and in the experiment with RXF 393 was > 100 µM (inactive) in each case. Further, in the experiment with SN12C, the GI50 was > 100 µM (inactive).
In the case of `COC(=O)c1c(OC(C)=O)ccc2c1c1c(OC(C)=O)c3ccccc3c(OC(C)=O)c1n2Cc1ccccc1`, the GI50 with KM12 was 1.49 µM (inactive); in the experiment on UACC-62 it was 2.72 µM (inactive); in the experiment with TK-10, 13 µM (inactive); with SF-295, 2.55 µM (inactive); in the experiment on HCT-15, 4.78 µM; with ACHN, 11.8 µM (inactive). Moreover, the GI50 with SF-539 is 1.61 µM (inactive); with SNB-19 it was 9.51 µM (inactive); with SK-MEL-2, 1.37 µM (inactive); in the experiment with OVCAR-3, 1.21 µM (inactive); with MDA-MB-435, 9.95 µM (inactive); in the experiment with NCI-H522 it was 0.783 µM (active). Further, the GI50 with M14 is 2.93 µM (inactive); with UO-31, 2.21 µM (inactive); in the experiment with U-251, 2.43 µM (inactive); with OVCAR-4 it was 2.39 µM (inactive); in the experiment on RXF 393, 5.77 µM (inactive); in the experiment with SN12C it was 10.5 µM (inactive).
Consider `O=C(c1ccc(/N=C/c2ccccc2O)cc1)c1ccc(/N=C/c2ccccc2O)cc1`, for which the GI50 in the experiment with KM12 was > 100 µM (inactive); in the experiment on UACC-62, > 100 µM (inactive); in the experiment with TK-10, > 100 µM (inactive); in the experiment with LOX IMVI, > 100 µM (inactive); in the experiment with SF-295, > 100 µM (inactive); in the experiment with HCT-15, greater than 100 µM. Also, the GI50 in the experiment with ACHN, in the experiment on SF-539, with SNB-19, in the experiment with SK-MEL-2, with OVCAR-3 and with MDA-MB-435 was > 100 µM (inactive) throughout. Further, the GI50 with NCI-H522, with M14, in the experiment on UO-31, in the experiment with SW-620, in the experiment with U-251 and in the experiment on OVCAR-4 was > 100 µM (inactive) in each case. Further, the GI50 in the experiment with RXF 393 is > 100 µM (inactive).
Consider `CC(/C=N/N(C)C1=NCCCN1)=N/N(C)C1=NCCCN1`, for which the GI50 with KM12 was > 100 µM (inactive); in the experiment with UACC-62 it was > 100 µM (inactive); in the experiment on TK-10 it was > 100 µM (inactive); in the experiment on LOX IMVI it was > 100 µM (inactive); with SF-295, > 100 µM (inactive); with HCT-15 it was greater than 100 µM. Further, the GI50 in the experiment on ACHN, with SF-539, in the experiment on SNB-19, with SK-MEL-2, in the experiment on OVCAR-3 and in the experiment on MDA-MB-435 was > 100 µM (inactive) throughout. In addition, the GI50 in the experiment on NCI-H522, in the experiment on UO-31, with SW-620, in the experiment on U-251, with OVCAR-4 and in the experiment on RXF 393 was > 100 µM (inactive) throughout. Further, in the experiment on SN12C, the GI50 is > 100 µM (inactive).
